Structures can show the parent of a compound that is named as a salt.
Columns and labels:
[1] = test system: Norepinephrine (NA) in Striatum; assay: Microdialysis in awake and freely moving rats, NA in striatum; type: in vivo, rat; settings: 50 μmol/kg s.c., awake freely moving rats
Description: (§1) Male Sprague-Dawley rats weighing 220-320 g were used throughout the experiments. Before the experiment the animals were group housed, five animals in each cage, with free access to water and food. The animals were housed at least one week after arrival prior to surgery and use in the experiments. Each rat was used only once for microdialysis.
(§2) We use a modified version (Waters et al., 1994) of the I-shaped probe (Santiago M & Westerink B H C, 1990). The dialysis membrane we use is the AN69 polyacrylonitrile/sodiummethalylsulfonate copolymer (HOSPAL; o.d./i.d. 310/220 μm: Gambro, Lund, Sweden). In the dorsal striatum we use probes with an exposed length of 3 mm of dialysis membrane and in the prefrontal cortex the corresponding length is 2.5 mm. The rats were operated under isoflurane inhalationanesthesia while mounted into a Kopf stereotaxic instrument. Co-ordinates were calculated relative to bregma; dorsal striatum AP +1, ML ±2.6, DV −6.3; Pf cortex, AP +3.2, 8° ML ±1.2, DV −4.0 according to (Paxinos G & Watson C, 1986). The dialysis probe was positioned in a burr hole under stereotaxic guidance and cemented with phosphatine dental cement.
(§3) The rats were housed individually in cages for 48 h before the dialysis experiments, allowing them to recover from surgery and minimizing the risk of drug interactions with the anaesthetic during the following experiments. During this period the rats had free access to food and water. On the day of experiment the rats were connected to a micro perfusion pump via a swiwel and were replaced in the cage where they could move freely within its confinements. The perfusion medium was a Ringer's solution containing in mmol/l: NaCl; 140, CaCl2; 1.2, KCl; 3.0, MgCl2; 1.0 and ascorbic acid; 0.04 according to (Moghaddam B & Bunney B S, 1989). The pump was set to a perfusion speed of 2 μl/min and 40 μl samples were collected every 20 min. Each sample was analyzed at two HPLC systems. On an autoinjector (CMA 200) with a 10-port valve (Valco C10WE), holding two sample loops in series (4 μl and 20 μl), each brain dialysate sample is loaded in both loops simultaneously. […] The currents generated by the two EC detectors are converted to digital data and evaluated using Chromeleon software (Dionex) on a PC. The method sample turn over time was 4.5 min and two parallel experiments are normally analyzed simultaneously on the system. […]

[2] = test system: Dopamine (DA) in Striatum; assay: Microdialysis in awake and freely moving rats, DA in striatum; type: in vivo, rat; settings: 50 μmol/kg s.c., awake freely moving rats
Description: as §1, §2, §3

[3] = test system: Serotonin (5-HT) in Striatum; assay: Microdialysis in awake and freely moving rats, 5-HT in striatum; type: in vivo, rat; settings: 50 μmol/kg s.c., awake freely moving rats
Description: as §1, §2, §3

[4] = test system: Norepinephrine (NA) in Prefrontal Cortex; assay: Microdialysis in awake and freely moving rats, NA in prefrontal cortex; type: in vivo, rat; settings: 50 μmol/kg s.c., awake freely moving rats
Description: as §1, §2, §3

[5] = test system: Dopamine (DA) in Prefrontal Cortex; assay: Microdialysis in awake and freely moving rats, DA in prefrontal cortex; type: in vivo, rat; settings: 50 μmol/kg s.c., awake freely moving rats
Description: as §1, §2, §3

[6] = test system: Serotonin (5-HT) in Prefrontal Cortex; assay: Microdialysis in awake and freely moving rats, 5-HT in prefrontal cortex; type: in vivo, rat; settings: 50 μmol/kg s.c., awake freely moving rats
Description: as §1, §2, §3

Q: Which melting point does the source give for `CCN1CCC(OC)(c2cccc(F)c2F)C1` (centres unmarked) (as salt: fumaric acid salt) [Example 13, 3-(2,3-difluorophenyl)-1-ethyl-3-methoxypyrrolidine] here?
A: 94 to 98 °C

Q: With `CCN1CCC(OC)(c2ccc(F)c(F)c2)C1` (centres unmarked) (as salt: oxalic acid salt) [Example 10, 3-(3,4-difluorophenyl)-1-ethyl-3-methoxypyrrolidine] as the compound, how does the melting point read?
A: 135 to 136 °C

Q: With `CCN1CCC(OC)(c2cccc(Cl)c2F)C1` (single isomer, unassigned; (+)) (as salt: fumaric acid salt) [Example 2, (+)-3-(3-chloro-2-fluorophenyl)-1-ethyl-3-methoxypyrrolidine] as the compound, how does the melting point read?
A: 131 to 133 °C

Q: Which melting point does the source give for `CCN1CCC(OC)(c2cccc(F)c2F)C1` (single isomer, unassigned; (+)) (as salt: fumaric acid salt) [Example 6, (+)-3-(2,3-difluorophenyl)-1-ethyl-3-methoxypyrrolidine] here?
A: 104 to 106 °C

Q: With `COC1(c2cccc(Cl)c2F)CCNC1` (single isomer, unassigned; (+)) (as salt: oxalic acid salt) [Example 1, (+)-3-(3-chloro-2-fluorophenyl)-3-methoxypyrrolidine] as the compound, how does the melting point read?
A: 183 to 185 °C

Q: For `COC1(c2cccc(F)c2F)CCNC1` (single isomer, unassigned; (+)) (as salt: oxalic acid salt) [Example 5, (+)-3-(2,3-difluorophenyl)-3-methoxypyrrolidine], which melting point is on record?
A: 182 to 184 °C

Q: For `COC1(c2cc(F)cc(F)c2)CCNC1` (single isomer, unassigned; (+)) (as salt: oxalic acid salt) [Example 14, (+)-3-(3,5-difluorophenyl)-3-methoxypyrrolidine], which melting point is on record?
A: 185 to 187 °C

Q: Which “NA Stri ± SEM, maximum effect compared to baseline values” [1] does the source give for `COC1(c2cccc(Cl)c2F)CCNC1` (single isomer, unassigned; (+)) [Example 1, (+)-3-(3-chloro-2-fluorophenyl)-3-methoxypyrrolidine] here?
A: 164 ± 22% of control

Q: What about the “DA Stri ± SEM, maximum effect compared to baseline values” [2] of the same compound?
A: 122 ± 8% of control

Q: What about the “5-HT Stri ± SEM, maximum effect compared to baseline values” [3] of the same compound?
A: 350 ± 28% of control

Q: What about the “NA PFC ± SEM, maximum effect compared to baseline values” [4] of the same compound?
A: 660 ± 38% of control

Q: What about the “DA PFC ± SEM, maximum effect compared to baseline values” [5] of the same compound?
A: 459 ± 103% of control

Q: What about the “5-HT PFC ± SEM, maximum effect compared to baseline values” [6] of the same compound?
A: 327 ± 58% of control

Q: With `COC1(c2cccc(F)c2F)CCNC1` (single isomer, unassigned; (+)) [Example 5, (+)-3-(2,3-difluorophenyl)-3-methoxypyrrolidine] as the compound, how does the “NA Stri ± SEM, maximum effect compared to baseline values” [1] read?
A: 168% of control

Q: What about the “DA Stri ± SEM, maximum effect compared to baseline values” [2] of the same compound?
A: 116 ± 0% of control

Q: And the “5-HT Stri ± SEM, maximum effect compared to baseline values” [3]?
A: 296 ± 55% of control

Q: And the “NA PFC ± SEM, maximum effect compared to baseline values” [4]?
A: 437 ± 25% of control

Q: And the “DA PFC ± SEM, maximum effect compared to baseline values” [5]?
A: 353 ± 61% of control

Q: What about the “5-HT PFC ± SEM, maximum effect compared to baseline values” [6] of the same compound?
A: 260 ± 19% of control

Q: For `CCN1CCC(OC)(c2cccc(F)c2F)C1` (single isomer, unassigned; (+)) [Example 6, (+)-3-(2,3-difluorophenyl)-1-ethyl-3-methoxypyrrolidine], which “NA Stri ± SEM, maximum effect compared to baseline values” [1] is on record?
A: 113% of control

Q: What about the “DA Stri ± SEM, maximum effect compared to baseline values” [2] of the same compound?
A: 133 ± 9% of control

Q: And the “5-HT Stri ± SEM, maximum effect compared to baseline values” [3]?
A: 138 ± 9% of control

Q: And the “NA PFC ± SEM, maximum effect compared to baseline values” [4]?
A: 285 ± 17% of control

Q: And the “DA PFC ± SEM, maximum effect compared to baseline values” [5]?
A: 297 ± 18% of control

Q: What about the “5-HT PFC ± SEM, maximum effect compared to baseline values” [6] of the same compound?
A: 157 ± 6% of control

Q: With `CCN1CCC(OC)(c2cccc(F)c2F)C1` (single isomer, unassigned; (-)) (as salt: fumaric acid salt) [Example 8, (−)-3-(2,3-difluorophenyl)-1-ethyl-3-methoxypyrrolidine] as the compound, how does the melting point read?
A: 105 to 107 °C

Q: Which “NA Stri ± SEM, maximum effect compared to baseline values” [1] does the source give for `CCN1CCC(OC)(c2cccc(F)c2F)C1` (single isomer, unassigned; (-)) [Example 8, (−)-3-(2,3-difluorophenyl)-1-ethyl-3-methoxypyrrolidine] here?
A: 169 ± 28% of control

Q: And the “DA Stri ± SEM, maximum effect compared to baseline values” [2]?
A: 119 ± 3% of control

Q: What about the “5-HT Stri ± SEM, maximum effect compared to baseline values” [3] of the same compound?
A: 187% of control

Q: What about the “NA PFC ± SEM, maximum effect compared to baseline values” [4] of the same compound?
A: 282% of control

Q: And the “DA PFC ± SEM, maximum effect compared to baseline values” [5]?
A: 252% of control

Q: What about the “5-HT PFC ± SEM, maximum effect compared to baseline values” [6] of the same compound?
A: 197% of control

Source: patent US9035073B2, “3-phenyl-3-methoxy-pyrrolidine derivatives useful as modulators of cortical catecholaminergic neurotransmission” (INTEGRATIVE RESEARCH LABORATORIES SWEDEN AB, priority 2008, dated 2015)
